Where two headings read alike, the source gives them in different places.
How the values were obtained:
[1] = system: HCV replicon (Replicon 1a); test: anti-HCV activity in Huh-7 cell line harboring a HCV replicon (Replicon 1a); type: cell-based; conditions: Hepatitis C virus, Huh-7, 72 h
cyclophilin A = cyclophilin A (Homo sapiens, UniProt P62937); test: Cyclophilin A TR-FRET competitive binding assay; conditions: IC50 ranges; competition with CsA-Cy5 for His-tagged CypA, two-hour incubation; read-out: TR-FRET
Chain of cyclophilin A (P62937 whole entry, species assumed): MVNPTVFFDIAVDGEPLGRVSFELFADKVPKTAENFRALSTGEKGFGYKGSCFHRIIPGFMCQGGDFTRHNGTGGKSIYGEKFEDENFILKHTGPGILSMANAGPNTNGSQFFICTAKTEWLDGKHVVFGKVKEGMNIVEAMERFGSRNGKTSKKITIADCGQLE
Protocol: Cyclophilin A TR-FRET Competitive Binding Assay
Inhibitor potency was measured using a competitive binding assay with a time-resolved fluorescence resonance energy transfer (TR-FRET) readout. […] An IC50 value was calculated using a four-parameter logistic fit.

[2] = read-out: Replicon 1a % inhibition at 1 μM, 1 μM, human hepatoma Huh-7 HCV replicon cells, 3 days, luciferase readout
[3] = read-out: Replicon 1a % inhibition at 1 μM

## CC(C)[C@@H]1NC(=O)C(C)(C)/C=C/c2ccc3cnc(nc3c2)[C@@H](C)OC(=O)[C@@H]2CCCN(N2)C(=O)[C@H](C)NC1=O [Compound 96]
[1]; [2]
  inhibition at 1 µM: 100%
Cyclophilin A
  IC50: < 0.1 µM

## CC(C)[C@@H]1NC(=O)C(C)(C)/C=C/c2ccc3ccc(nc3c2)[C@@H](C)OC(=O)[C@@H]2CCCN(N2)C(=O)[C@H](CC(=O)N(C)C)NC1=O [Compound 97]
[1]; [2]
  inhibition at 1 µM: 98%
Cyclophilin A
  IC50: < 0.1 µM

## CC(C)[C@@H]1NC(=O)C(C)(C)/C=C/c2ccc3ccc(nc3c2)[C@@H](C)OC(=O)[C@@H]2CCCN(N2)C(=O)[C@H](CC(=O)N2CCCCC2)NC1=O [Compound 98]
[1]; [3]
  inhibition at 1 µM: 95%
Cyclophilin A
  IC50: < 0.1 µM

## CC(C)[C@@H]1NC(=O)C(C)(C)/C=C/c2ccc3ccc(nc3c2)[C@@H](C)OC(=O)[C@@H]2CCCN(N2)C(=O)[C@H](CC(=O)N2CCCC2)NC1=O [Compound 99]
[1]; [2]
  inhibition at 1 µM: 96%
Cyclophilin A
  IC50: < 0.1 µM

## CC(C)[C@@H]1NC(=O)C(C)(C(C)(C)O)/C=C/c2ccc3ccc(nc3c2)[C@@H](C)OC(=O)[C@@H]2CCCN(N2)C(=O)[C@H](C)NC1=O (stereo partly drawn) [Compound 101]
[1]; [2]
  inhibition at 1 µM: 99%
Cyclophilin A
  IC50: < 0.1 µM

## CC(C)[C@@H]1NC(=O)[C@@](C)(CO)/C=C/c2ccc3ccc(cc3c2)[C@@H](C)OC(=O)[C@@H]2CCCN(N2)C(=O)[C@H](C)NC1=O [Compound 104]
[1]; [2]
  inhibition at 1 µM: 98%
Cyclophilin A
  IC50: < 0.1 µM

## CC(C)[C@@H]1NC(=O)C(C)(C)/C=C/c2ccc3ccc(nc3c2)[C@@H](C)OC(=O)[C@@H]2CCCN(N2)C(=O)[C@H](COC(F)F)NC1=O [Compound 106]
[1]; [2]
  inhibition at 1 µM: 99%
Cyclophilin A
  IC50: < 0.1 µM

## COC[C@@]1(C)/C=C/c2ccc3ccc(nc3c2)[C@@H](C)OC(=O)[C@@H]2CCCN(N2)C(=O)[C@H](C)NC(=O)[C@H](C(C)C)NC1=O [Compound 107]
[1]; [2]
  inhibition at 1 µM: 100%
Cyclophilin A
  IC50: < 0.1 µM

## CC(C)[C@@H]1NC(=O)C(C)(C)/C=C/c2ccc3ccc(nc3c2)[C@@H](C)OC(=O)[C@@H]2CCCN(N2)C(=O)[C@H](Cc2cscn2)NC1=O [Compound 110]
[1]; [2]
  inhibition at 1 µM: 100%
Cyclophilin A
  IC50: < 0.1 µM

## CC(C)[C@@H]1NC(=O)C(C)(C)/C=C/c2ccc3ccc(nc3c2)[C@@H](C)NC(=O)[C@@H]2CCCN(N2)C(=O)[C@H](C)NC1=O [Compound 111]
[1]; [2]
  inhibition at 1 µM: 87%
Cyclophilin A
  IC50: < 0.1 µM

## CC(C)[C@@H]1NC(=O)C(C)(C)/C=C/c2ccc3ccc(nc3c2)[C@@H](C)OC(=O)[C@@H]2CCCN(N2)C(=O)[C@H](COCC2(C)COC2)NC1=O [Compound 114]
[1]; [2]
  inhibition at 1 µM: 99%
Cyclophilin A
  IC50: < 0.1 µM

## CC(C)[C@@H]1NC(=O)C(C)(C)/C=C/c2ccc3ccc(nc3c2)C(C)N(C)C(=O)[C@@H]2CCCN(N2)C(=O)[C@H](C)NC1=O (stereo partly drawn) [Compound 115]
[1]; [2]
  inhibition at 1 µM: 92%
Cyclophilin A
  IC50: < 0.1 µM

## CC(C)[C@@H]1NC(=O)C(C)(C)/C=C/c2ccc3ccc(nc3c2)[C@@H](C)OC(=O)[C@]2(C)CCCN(N2)C(=O)[C@H](C)NC1=O [Compound 119]
[1]; [2]
  inhibition at 1 µM: 98%
Cyclophilin A
  IC50: < 0.1 µM

## CC(C)[C@@H]1NC(=O)C(C)(C)/C=C/c2ccc3ccc(nc3c2)[C@@H](C)NC(=O)[C@@H]2CCCN(N2)C(=O)[C@H](Cc2ccccc2)NC1=O [Compound 120]
[1]; [2]
  inhibition at 1 µM: 91%
Cyclophilin A
  IC50: < 0.1 µM

## CC(C)[C@@H]1NC(=O)C2(/C=C/c3ccc4ccc(nc4c3)[C@@H](C)NC(=O)[C@@H]3CCCN(N3)C(=O)[C@H](C)NC1=O)CCC(F)(F)CC2 [Compound 122]
[1]; [2]
  inhibition at 1 µM: 96%
Cyclophilin A
  IC50: < 0.1 µM

## CC(C)[C@@H]1NC(=O)C2(/C=C/c3ccc4ccc(nc4c3)[C@@H](C)OC(=O)[C@@H]3CCCN(N3)C(=O)[C@H](C)NC1=O)CCOC(C)(C)C2 (stereo partly drawn) [Compound 123]
[1]; [2]
  inhibition at 1 µM: 100%
Cyclophilin A
  IC50: < 0.1 µM

## CC[C@H](C)[C@@H]1NC(=O)C(C)(C)/C=C/c2ccc3ccc(nc3c2)[C@@H](C)OC(=O)[C@@H]2CCCN(N2)C(=O)[C@H](C)NC1=O [Compound 125]
[1]; [2]
  inhibition at 1 µM: 100%
Cyclophilin A
  IC50: < 0.1 µM

## CC(C)[C@@H]1NC(=O)C2(/C=C/c3ccc4ccc(nc4c3)[C@@H](C)OC(=O)[C@@H]3CCCN(N3)C(=O)[C@H](C)NC1=O)CCN(C(=O)OC(C)(C)C)CC2 [Compound 126]
[1]; [2]
  inhibition at 1 µM: 100%
Cyclophilin A
  IC50: < 0.1 µM

## CC(C)[C@@H]1NC(=O)C2(/C=C/c3ccc4ccc(nc4c3)[C@@H](C)OC(=O)[C@@H]3CCCN(N3)C(=O)[C@H](C)NC1=O)CCNCC2 [Compound 127]
[1]; [2]
  inhibition at 1 µM: 2%
Cyclophilin A
  IC50: < 0.1 µM

## CCN1CCC2(/C=C/c3ccc4ccc(nc4c3)[C@@H](C)OC(=O)[C@@H]3CCCN(N3)C(=O)[C@H](C)NC(=O)[C@H](C(C)C)NC2=O)CC1 [Compound 129]
[1]; [3]
  inhibition at 1 µM: 96%
Cyclophilin A
  IC50: < 0.1 µM

## CC(C)[C@@H]1NC(=O)C2(/C=C/c3ccc4ccc(nc4c3)[C@@H](C)OC(=O)[C@@H]3CCCN(N3)C(=O)[C@H](C)NC1=O)CCN(S(C)(=O)=O)CC2 [Compound 130]
[1]; [2]
  inhibition at 1 µM: 100%
Cyclophilin A
  IC50: < 0.1 µM

## CC(C)[C@@H]1NC(=O)C2(/C=C/c3ccc4ccc(nc4c3)[C@@H](C)OC(=O)[C@@H]3CCCN(N3)C(=O)[C@H](C)NC1=O)CCN(CC#N)CC2 [Compound 131]
[1]; [3]
  inhibition at 1 µM: 77%
Cyclophilin A
  IC50: < 0.1 µM

## COC(=O)N1CCC2(/C=C/c3ccc4ccc(nc4c3)[C@@H](C)OC(=O)[C@@H]3CCCN(N3)C(=O)[C@H](C)NC(=O)[C@H](C(C)C)NC2=O)CC1 [Compound 132]
[1]; [3]
  inhibition at 1 µM: 100%
Cyclophilin A
  IC50: < 0.1 µM

## CC(C)[C@@H]1NC(=O)C2(/C=C/c3ccc4ccc(nc4c3)[C@@H](C)OC(=O)[C@@H]3CCCN(N3)C(=O)[C@H](C)NC1=O)CCN(C(=O)N1CCCC1)CC2 [Compound 133]
[1]; [2]
  inhibition at 1 µM: 98%
Cyclophilin A
  IC50: < 0.1 µM

## CC(C)[C@@H]1NC(=O)C2(/C=C/c3ccc4ccc(nc4c3)[C@@H](C)OC(=O)[C@@H]3CCCN(N3)C(=O)[C@H](C)NC1=O)CCN(S(=O)(=O)CC1CC1)CC2 [Compound 134]
[1]; [2]
  inhibition at 1 µM: 99%
Cyclophilin A
  IC50: < 0.1 µM

## CC(=O)N1CCC2(/C=C/c3ccc4ccc(nc4c3)[C@@H](C)OC(=O)[C@@H]3CCCN(N3)C(=O)[C@H](C)NC(=O)[C@H](C(C)C)NC2=O)CC1 [Compound 135]
[1]; [2]
  inhibition at 1 µM: 94%
Cyclophilin A
  IC50: < 0.1 µM

## CC(C)[C@@H]1NC(=O)C2(/C=C/c3ccc4ccc(nc4c3)[C@@H](C)OC(=O)[C@@H]3CCCN(N3)C(=O)[C@H](C)NC1=O)CCN(CC(F)(F)F)CC2 [Compound 136]
[1]; [2]
  inhibition at 1 µM: 100%
Cyclophilin A
  IC50: < 0.1 µM

## COCc1cc2ccc3cc2nc1[C@@H](C)OC(=O)[C@@H]1CCCN(N1)C(=O)[C@H](C)NC(=O)[C@H](C(C)C)NC(=O)C(C)(C)/C=C/3 [Compound 137]
[1]; [2]
  inhibition at 1 µM: 100%
Cyclophilin A
  IC50: < 0.1 µM

## CC(C)[C@@H]1NC(=O)C(C)(C)/C=C/c2ccc3c(Cl)cc(nc3c2)[C@@H](C)OC(=O)[C@@H]2CCCN(N2)C(=O)[C@H](C)NC1=O [Compound 138]
[1]; [2]
  inhibition at 1 µM: 100%
Cyclophilin A
  IC50: < 0.1 µM

## CC1NC(=O)C(C(C)C)NC(=O)C(C)(C)/C=C/c2ccc3c(C#N)cc(nc3c2)C(C)OC(=O)C2CCCN(N2)C1=O (stereo not drawn) [Compound 141]
[1]; [2]
  inhibition at 1 µM: 99%
Cyclophilin A
  IC50: < 0.1 µM

## CC(C)[C@@H]1NC(=O)C(C)(C)/C=C/c2ccc3ccc(cc3c2)[C@@H](C)OC(=O)[C@@H]2CCCN(N2)C(=O)[C@H](C)NC1=O [Compound 142]
[1]; [2]
  inhibition at 1 µM: 99%
Cyclophilin A
  IC50: < 0.1 µM

## CC(C)[C@@H]1NC(=O)C(C)(C)/C=C/c2cc3cc(ccc3cn2)[C@@H](C)NC(=O)[C@@H]2CCCN(N2)C(=O)[C@H](C)NC1=O [Compound 143]
[1]; [2]
  inhibition at 1 µM: 31%
Cyclophilin A
  IC50: < 0.1 µM

## Cc1cc2nc3cc(ccc13)/C=C/C(C)(C)C(=O)N[C@@H](C(C)C)C(=O)N[C@@H](C)C(=O)N1CCC[C@H](N1)C(=O)O[C@@H]2C [Compound 144]
[1]; [2]
  inhibition at 1 µM: 100%
Cyclophilin A
  IC50: < 0.1 µM

## CC(C)[C@@H]1NC(=O)C(C)(C)/C=C/c2ccc3c(=O)[nH]c(nc3c2)[C@@H](C)OC(=O)C2CCCN(N2)C(=O)[C@@H](C)NC1=O (stereo partly drawn) [Compound 146]
[1]; [2]
  inhibition at 1 µM: 24%
Cyclophilin A
  IC50: < 0.1 µM

## CC(C)[C@@H]1NC(=O)C(C)(C)/C=C/c2ccc3c(=O)n(C)c(nc3c2)[C@@H](C)OC(=O)C2CCCN(N2)C(=O)[C@@H](C)NC1=O (stereo partly drawn) [Compound 147]
[1]; [2]
  inhibition at 1 µM: 94%
Cyclophilin A
  IC50: < 0.1 µM

## Cc1cc2cc3nc(ccc13)[C@@H](C)OC(=O)C1CCCN(N1)C(=O)[C@@H](C)NC(=O)[C@H](C(C)C)NC(=O)C(C)(C)/C=C/2 (stereo partly drawn) [Compound 148]
[1]; [2]
  inhibition at 1 µM: 100%
Cyclophilin A
  IC50: < 0.1 µM

## CO[C@@H](C)[C@H]1/C=C/c2ccc3ccc(nc3c2)[C@@H](C)OC(=O)[C@@H]2CCCN(N2)C(=O)[C@@H](C)NC(=O)[C@H](C(C)C)NC1=O [Compound 149]
[1]; [2]
  inhibition at 1 µM: 99%
Cyclophilin A
  IC50: < 0.1 µM

## CC(C)[C@@H]1NC(=O)C2(/C=C/c3ccc4ccc(nc4c3)[C@@H](C)OC(=O)[C@@H]3CCCN(N3)C(=O)[C@H](C)NC1=O)CC2 [Compound 152]
[1]; [2]
  inhibition at 1 µM: 100%
Cyclophilin A
  IC50: < 0.1 µM

## CC(C)[C@@H]1NC(=O)C2(/C=C/c3ccc4ccc(nc4c3)[C@@H](C)OC(=O)[C@@H]3CCCN(N3)C(=O)[C@H](C)NC1=O)CCOCC2 [Compound 153]
[1]; [2]
  inhibition at 1 µM: 100%
Cyclophilin A
  IC50: < 0.1 µM

## CC(C)[C@@H]1NC(=O)C2(/C=C/c3ccc4ccc(nc4c3)[C@@H](C)OC(=O)[C@@H]3CCCN(N3)C(=O)[C@H](C)NC1=O)CCCC2 [Compound 154]
[1]; [2]
  inhibition at 1 µM: 100%
Cyclophilin A
  IC50: < 0.1 µM

## CC(C)[C@@H]1NC(=O)[C@@]2(/C=C/c3ccc4ccc(nc4c3)[C@@H](C)OC(=O)[C@@H]3CCCN(N3)C(=O)[C@H](C)NC1=O)CCCN2C(=O)OC(C)(C)C [Compound 155]
[1]; [2]
  inhibition at 1 µM: 100%
Cyclophilin A
  IC50: < 0.1 µM

## CC(C)[C@@H]1NC(=O)[C@@]2(/C=C/c3ccc4ccc(nc4c3)[C@@H](C)OC(=O)[C@@H]3CCCN(N3)C(=O)[C@H](C)NC1=O)CCCN2S(C)(=O)=O [Compound 156]
[1]; [2]
  inhibition at 1 µM: 87%
Cyclophilin A
  IC50: < 0.1 µM
